Tested on: TNFα release from human peripheral blood mononuclear cells
Assay: Inhibition of LPS-stimulated TNFα release from human peripheral blood mononuclear cells (TNFα screen)
Assay type: cell-based
Settings: human PBMC, LPS stimulation, 18 hours incubation, TNFα in supernatant by ELISA
Experimental: Venous blood is collected from healthy volunteers and the mononuclear cells purified by centrifugation through Histopaque (Ficoll) cushions. TNFα production from these cells is stimulated by addition of lipopolysaccharide. After 18 hours incubation in the presence of LPS, the cell supernatant is removed and the concentration of TNFa in the supernatant determined by ELISA. Addition of PDE4 inhibitors reduces the. amount of TNFQ produced. An IC50 is determined which is equal to the concentration of compound that gives 50% inhibition TNFα production as compared to the LPS stimulated control wells.

IC50 | SMILES
22 nM | Cc1ccc(O)c(C(=O)N[C@H]2CC[C@H](NC(=O)c3cc(F)cnc3Oc3ccc4c(c3)OCO4)CC2)c1 [Example 8]
156 nM | O=C(N[C@H]1CC[C@H](NC(=O)c2ccc3ccccc3c2O)CC1)c1cc(F)cnc1Oc1ccc(F)cc1 [Example 22]
39.5 nM | O=C(N[C@H]1CC[C@H](NC(=O)c2ncccc2O)CC1)c1cc(F)cnc1Oc1ccc(F)cc1 [Example 27]
217 nM | O=C(CCc1cccc(O)c1)N[C@H]1CC[C@H](NC(=O)c2cc(F)cnc2Oc2ccc(F)cc2)CC1 [Example 28]
4.9 nM | O=C(NC1CCC(NC(=O)c2c(O)cccc2F)CC1)c1cc(F)cnc1Oc1ccc(F)c(F)c1 (stereo not drawn) [Example 41, Anti-5-Fluoro-2-(3,4-difluoro-phenoxy)-N-[4-(2-fluoro-6-hydroxy-benzoylmino)-cyclohexyl]-Nicotinamide]
91 nM | CC(=O)N(Cc1ccccc1O)C1CCC(NC(=O)c2cc(F)cnc2Oc2ccc(F)cc2)CC1 (stereo not drawn) [Example 44, Anti-N-{4-[Acetyl-(2-hydroxybenzyl)-amino]-cyclohexyl}-5-fluoro-2-(4-fluoro-phenoxy)-nicotinamide]
0.28 nM | Cc1ccc(C(=O)NC2CCC(NC(=O)c3cc(F)cnc3Oc3ccc(F)cc3)CC2)c(O)c1 (stereo not drawn) [Example 47, Syn-5-Fluoro-2-(4-fluoro-phenoxy)-N-[4-(2-hydroxy-4-methyl-benzoylamino)-cyclohexyl]-nicotinamide]
2.8 nM | COc1ccc(C(=O)N[C@H]2CC[C@@H](NC(=O)c3cc(F)cnc3Oc3ccc(F)cc3)CC2)cc1O [Example 54]
1.9 nM | O=C(Cc1ccc(O)c(F)c1)N[C@H]1CC[C@@H](NC(=O)c2cc(F)cnc2Oc2ccc(F)cc2)CC1 [Example 56]
3.5 nM | O=C(Cc1ccc(O)c(Cl)c1)N[C@H]1CC[C@@H](NC(=O)c2cc(F)cnc2Oc2ccc(F)cc2)CC1 [Example 58]
1.1 nM | O=C(NCc1ccccc1O)NC1CCC(NC(=O)c2cc(F)cnc2Oc2ccc(F)cc2)CC1 (stereo not drawn) [Example 72, Syn-5-Fluoro-2-(4-fluoro-phenoxy)-N-{4-[3-(2-hydroxy-benzyl)-ureido]-cyclohexyl}-nicotinamide]
49 nM | O=C(O)c1ccccc1C(=O)NC1CCC(NC(=O)c2cc(F)cnc2Oc2ccc(F)cc2)CC1 (centres unmarked) [Example 76]
25.5 nM | Cc1ccc(C(=O)N2CCC(NC(=O)c3cc(F)cnc3Oc3ccc(F)cc3)CC2)c(O)c1 [Example 79, 5-Fluoro-2-(4-fluoro-phenoxy)-N-[1-(2-hydroxy-4-methyl-benzoyl)-piperidin-4-yl]-nicotinamide]
7.4 nM | O=C(NC1CCN(C(=O)c2cccc(O)c2)CC1)c1cc(F)cnc1Oc1ccc(F)cc1 [Example 80]
30 nM | O=C(NC1CCN(C(=O)c2ccc3ccccc3c2O)CC1)c1cc(F)cnc1Oc1ccc(F)cc1 [Example 81]
28 nM | O=C(NC1CCN(C(=O)c2cc(F)ccc2O)CC1)c1cc(F)cnc1Oc1ccc(F)cc1 [Example 85]
114 nM | O=C(NC1CCN(C(=O)Cc2ccc(O)cc2)CC1)c1cc(F)cnc1Oc1ccc(F)cc1 [Example 88]
37 nM | O=C(NC1CCN(C(=O)CCc2ccccc2O)CC1)c1cc(F)cnc1Oc1ccc(F)cc1 [Example 91]
3.6 nM | O=C(NC1CCC(NC(=O)C(O)C2CCCCC2)CC1)c1cc(F)cnc1Oc1ccc(F)cc1 (centres unmarked) [Example 106]
21 nM | COC(=O)c1cccc(C(=O)N[C@H]2CC[C@@H](NC(=O)c3cc(F)cnc3Oc3ccc(F)cc3)CC2)n1 [Example 123]
30 nM | CC(C)(CC(=O)N[C@H]1CC[C@@H](NC(=O)c2cc(F)cnc2Oc2ccc(F)cc2)CC1)C(=O)O [Example 129]
74 nM | O=C(O)c1ccnc(C(=O)N[C@H]2CC[C@@H](NC(=O)c3cc(F)cnc3Oc3ccc(F)cc3)CC2)c1 [Example 135]
16 nM | COc1cc(C(=O)O)ccc1C(=O)N[C@H]1CC[C@@H](NC(=O)c2cc(F)cnc2Oc2ccc(F)cc2)CC1 [Example 137]

IC50 | SMILES
0.2 nM | COc1ccc(C(=O)N[C@H]2CC[C@@H](NC(=O)c3cc(F)cnc3Oc3cccc(F)c3)CC2)c(O)c1 [Example 152]
0.09 nM | COc1ccc(C(=O)N[C@H]2CC[C@@H](NC(=O)c3cc(F)cnc3Oc3ccc(F)c(F)c3)CC2)c(O)c1 [Example 155]
0.14 nM | COc1ccc(C(=O)N[C@H]2CC[C@@H](NC(=O)c3cc(F)cnc3Oc3ccc(F)c(Cl)c3)CC2)c(O)c1 [Example 156]
2 nM | CCc1cccc(Oc2ncc(F)cc2C(=O)N[C@H]2CC[C@@H](NC(=O)c3ccc(OC)cc3O)CC2)c1 [Example 157]
4.6 nM | COc1ccc(C(=O)N[C@H]2CC[C@@H](NC(=O)c3cc(F)cnc3Oc3ccc4c(c3)CCC4)CC2)c(O)c1 [Example 159]
4.3 nM | O=C(N[C@H]1CC[C@@H](C(=O)NCc2ccccc2O)CC1)c1cccnc1Oc1ccc(F)cc1 [Example 172, Syn-2-(4-Fluoro-phenoxy)-N-[4-(2-hydroxy-benzyl-carba-moyl)-cyclohexyl]-nicotinamide]
2.1 nM | O=C(N[C@H]1CC[C@@H](C(=O)NCc2ccc(O)cc2F)CC1)c1cccnc1Oc1ccc(F)cc1 [Example 173, Syn-N-[4-(2-Fluoro-4-hydroxy-benzyl-carbamoyl)-cyclohexyl]-2-(4-fluoro-phenoxy)-nicotinamide]
0.014 nM | Cc1ccc(O)c(C(=O)N[C@H]2CC[C@@H](NC(=O)c3cc(F)cnc3Oc3ccc(F)c(F)c3)CC2)c1 [Example 174, Syn-2-(3.4-Difluoro-phenoxy)-5-fluoro-N-[4-(2-hydroxy-5-methyl-benzoylamino)-cyclohexyl]-nicotinamide]
0.15 nM | O=C(N[C@H]1CC[C@@H](NC(=O)c2c(O)cccc2O)CC1)c1cc(F)cnc1Oc1ccc(F)c(F)c1 [Example 178]
0.07 nM | O=C(N[C@H]1CC[C@@H](NC(=O)c2cc(F)cnc2Oc2ccc(F)c(F)c2)CC1)c1cc(CO)ccc1O [Example 183]
0.2 nM | O=C(N[C@H]1CC[C@@H](NC(=O)c2cc(F)cnc2Oc2ccc(F)c(F)c2)CC1)c1ccc(Cl)cc1O [Example 186]
0.006 nM | COc1ccc(O)c(C(=O)N[C@H]2CC[C@@H](NC(=O)c3cc(F)cnc3Oc3ccc(F)c(F)c3)CC2)c1 [Example 187]
0.06 nM | O=C(N[C@H]1CC[C@@H](NC(=O)c2cc(F)cnc2Oc2ccc(F)c(F)c2)CC1)c1ccccc1O [Example 190]
9 nM | O=C(N[C@H]1CC[C@@H](NC(=O)c2cc(F)cnc2Oc2ccc(F)c(F)c2)CC1)c1cc(Cl)c(Cl)cc1O [Example 193]
0.4 nM | Cc1ccc(C(=O)N[C@H]2CC[C@@H](NC(=O)c3cc(F)cnc3Oc3cccc(OC(F)(F)F)c3)CC2)c(O)c1 [Example 195, Syn-5-Fluoro-N-[4-(2-hydroxy-4-methyl-benzoylamino)-cyclohexyl]-2-(3-trifluoromethoxy-phenoxy)-nicotinamide]
1.8 nM | COc1cccc(Oc2ncc(F)cc2C(=O)N[C@H]2CC[C@@H](NC(=O)c3ccc(OC)cc3O)CC2)c1 [Example 197]
0.7 nM | Cc1ccc(C(=O)N[C@H]2CC[C@@H](NC(=O)c3cc(F)cnc3Oc3cccc(C(F)(F)F)c3)CC2)c(O)c1 [Example 199]
0.05 nM | Cc1ccc(C(=O)N[C@H]2CC[C@@H](NC(=O)c3cc(F)cnc3Oc3ccc(F)c(Cl)c3)CC2)c(O)c1 [Example 200]
0.3 nM | Cc1ccc(C(=O)N[C@H]2CC[C@@H](NC(=O)c3cc(F)cnc3Oc3cccc(Br)c3)CC2)c(O)c1 [Example 201]
7 nM | Cc1ccc(C(=O)N[C@H]2CC[C@@H](NC(=O)c3cc(F)cnc3Oc3ccc(F)cc3C)CC2)c(O)c1 [Example 203]
0.3 nM | Cc1ccc(O)c(C(=O)N[C@H]2CC[C@@H](NC(=O)c3cc(F)cnc3Oc3cccc(C4CC4)c3)CC2)c1 [Example 204]
0.55 nM | Cc1ccc(O)c(C(=O)N[C@H]2CC[C@@H](NC(=O)c3cc(F)cnc3Oc3cccc(OC4CCC4)c3)CC2)c1 [Example 205]

SMILES | IC50
O=C(N[C@H]1CC[C@H](NC(=O)c2cc(F)cnc2Oc2ccc3c(c2)OCO3)CC1)c1ccc(O)cc1 [Example 6] | 23.5 nM
O=C(N[C@H]1CC[C@H](NC(=O)c2c(O)cccc2F)CC1)c1cc(F)cnc1Oc1ccc(F)cc1 [Example 17] | 8.5 nM
O=C(N[C@H]1CC[C@H](NC(=O)c2cc(F)cnc2Oc2ccc(F)cc2)CC1)c1cc(Cl)ccc1O [Example 20] | 113 nM
COc1ccc(C(=O)N[C@H]2CC[C@H](NC(=O)c3cc(F)cnc3Oc3ccc(F)cc3)CC2)c(O)c1 [Example 23] | 7.8 nM
O=C(Cc1cccc(O)c1)N[C@H]1CC[C@H](NC(=O)c2cc(F)cnc2Oc2ccc(F)cc2)CC1 [Example 25] | 8.5 nM
O=C(N[C@H]1CC[C@H](NC(=O)c2cc(F)cnc2Oc2ccc(F)cc2)CC1)c1cc(O)ccc1O [Example 26] | 5.4 nM
COc1cc(O)c(C(=O)N[C@H]2CC[C@H](NC(=O)c3cc(F)cnc3Oc3ccc(F)cc3)CC2)c(OC)c1 [Example 30] | 2.6 nM
O=C(N[C@H]1CC[C@@H](NC(=O)c2cc(F)cnc2Oc2ccc(F)cc2)CC1)c1cccc(O)c1 [Example 48] | 1.66 nM
O=C(Cc1ccccc1O)N[C@H]1CC[C@@H](NC(=O)c2cc(F)cnc2Oc2ccc(F)cc2)CC1 [Example 51] | 2.09 nM
O=C(N[C@H]1C[C@H]2CC[C@@H](C1)N2C(=O)Cc1ccc(O)cc1)c1cc(F)cnc1Oc1ccc(F)cc1 [Example 92, endo-5-Fluoro-2-(4-fluoro-phenoxy)-N-{8-[2-(4-hydroxy-phenyl)-acetyl]-8-aza-bicyclo[3.2.1]oct-3-yl}-nicotinamide] | 185 nM
O=C(O)c1ccccc1C(=O)N1[C@@H]2CC[C@H]1C[C@H](NC(=O)c1cc(F)cnc1Oc1ccc(F)cc1)C2 [Example 100, exo-2-(3-{[5-Fluoro-2-(4-fluoro-phenoxy)-pyridine-3-carbonyl]-amino}8-aza-bicyclo[3.2.1]octane-8-carbonyl}-benzoic Acid] | 56 nM
